Measurements published in patent US5624923A, “Tricyclic diazepine vasopressin antagonists and oxytocin antagonists” (priority 1995, dated 1997).
Read-outs that look alike come from different tables or passages of the source. Values belong to the compound of their own block, whether it stands above or below them.

Assays:
[1] = biological target: T1, Human V2 Vasopressin Receptor (Homo sapiens, UniProt P30518); assay: Binding to Membranes of Mouse Fibroblast Cell Line (LV-2) Transfected with the cDNA Expressing the Human V2 Vasopressin Receptor
T1 construct: expressed in transfected cells; host or cells: mouse fibroblast cell line LV-2
T1 sequence (P30518 whole entry): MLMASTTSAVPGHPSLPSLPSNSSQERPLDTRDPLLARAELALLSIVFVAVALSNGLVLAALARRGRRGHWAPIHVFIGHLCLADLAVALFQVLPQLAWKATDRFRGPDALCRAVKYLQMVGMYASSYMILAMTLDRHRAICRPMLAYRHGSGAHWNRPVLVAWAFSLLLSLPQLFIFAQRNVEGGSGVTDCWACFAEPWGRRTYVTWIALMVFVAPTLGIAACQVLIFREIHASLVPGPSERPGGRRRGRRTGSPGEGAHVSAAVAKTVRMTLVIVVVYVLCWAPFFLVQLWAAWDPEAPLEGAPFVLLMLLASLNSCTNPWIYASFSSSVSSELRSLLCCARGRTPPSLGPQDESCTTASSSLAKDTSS
Protocol: Binding to Membranes of Mouse Fibroblast Cell Line (LV-2) Transfected with the cDNA Expressing the Human V2 Vasopressin Receptor
Flasks of 175 ml capacity, containing attached cells grown to confluence, are cleared of culture medium by aspiration. The flasks containing the attached cells are rinsed with 2×5 ml of phosphate buffered saline (PBS) and the liquid aspirated off each time. Finally, 5 ml of an enzyme free dissociation Hank's based solution (Specialty Media, Inc., Lafayette, N.J.) is added and the flasks are left undisturbed for 2 min. The content of all flasks is. poured into a centrifuge tube and the cells pelleted at 300× g for 15 min. The Hank's based solution is aspirated off and the cells homogenized with a polytron at setting #6 for 10 sec in 10.0 mM Tris.HCl buffer, pH 7.4 containing 0.25M sucrose and 1.0 mM EDTA. The homogenate is centrifuged at 1500× g for 10 min to remove ghost membranes. The supernatant fluid is centrifuged at 100,000× g for 60 min. to pellet the receptor protein. Upon completion, the pellet is resuspended in a small volume of 50.0 mM Tris. HCl buffer, pH 7.4. The protein content is determined by the Lowry method and the receptor membranes are suspended in 50.0 mM Tris.HCl buffer containing 0.1 mM phenylmethylsulfonylfluoride (PMSF) and 0.2% bovine serum albumin (BSA) to give 2.5 mg receptor protein per ml of suspension.
Arginine^8, vasopressin (S.A. 75.0 Ci/mmole) at 0.8 nM and the reaction initiated by the addition of 80.0 μl of tissue membranes (200.0 μg tissue protein). The plates are left undisturbed on the bench top for 120 min to reach equilibrium. Non specific binding is assessed in the presence of 1.0 μM of unlabeled ligand, added in 20 μl volume. For test compounds, these are solubilized in 50% dimethylsulfoxide (DMSO) and added in 20.0 μl volume to a final incubation volume of 200 μl. Upon completion of binding, the content of each well is filtered off, using a Brandel® cell Harvester (Gaithersburg, Md.). The radioactivity trapped on the filter disk by the ligand-receptor complex is assessed by liquid scintillation counting in a Packard LS Counter, with an efficiency of 65% for tritium. The data are analyzed for IC50 values by the LUNDON-2 program for competition (LUNDON SOFTWARE, Ohio).

[2] = biological target: T2, V1 Receptor Subtype in Human Platelet (Homo sapiens, UniProt P37288); assay: Binding to Vasopressin V1 receptor subtype in Human Platelet Membranes; conditions: for IC50: human platelet membranes
T2 construct: tissue Hudson Valley Blood Services, Westchester Medical Center, Valhalla, N.Y; host or cells: human platelets (frozen platelet rich plasma)
T2 sequence (P37288 whole entry): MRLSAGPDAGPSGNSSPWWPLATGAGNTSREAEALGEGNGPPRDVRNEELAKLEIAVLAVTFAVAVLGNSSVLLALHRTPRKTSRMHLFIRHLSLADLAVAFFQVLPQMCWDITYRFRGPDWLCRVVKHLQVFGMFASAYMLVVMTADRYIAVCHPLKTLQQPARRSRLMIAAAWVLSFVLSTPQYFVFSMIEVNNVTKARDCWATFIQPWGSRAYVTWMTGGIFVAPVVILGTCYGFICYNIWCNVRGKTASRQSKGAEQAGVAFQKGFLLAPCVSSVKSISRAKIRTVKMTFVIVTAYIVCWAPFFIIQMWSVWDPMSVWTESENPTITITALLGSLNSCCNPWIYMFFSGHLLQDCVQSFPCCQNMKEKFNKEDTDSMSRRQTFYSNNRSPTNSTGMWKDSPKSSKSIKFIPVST
Protocol: Radioligand Binding Experiments with Human Platelet Membranes (a) Platelet Membrane Preparation: Frozen platelet rich plasma (PRP), (Platelet Source: Hudson Valley Blood Services, Westchester Medical Center, Valhalla, N.Y.) are thawed to room temperature. The tubes containing the PRP are centrifuged at 16,000×g for 10 min. at 4° C. and the supernatant fluid discarded. […] The suspension is recentrifuged at 16,000× g for 10 min. This washing step is repeated one more time. The wash discarded and the lysed pellets homogenized in low ionic strength buffer of Tris.HCl, 5.0 mM, pH 7.5 containing 5.0 mM EDTA. The homogenate is centrifuged at 39,000× g for 10 min. The resulting pellet is resuspended in Tris. […] The final pellet is resuspended in 50.0 mM Tris. HCl buffer pH 7.4 containing 120 mM NaCl and 5.0 mM KCl to give 1.0-2.0 mg protein per ml of suspension. […] Platelet Membranes […] Then add 20 μl of [^3 H]Ligand (Manning or […] Vasopressin), to give final concentrations ranging from 0.01 to 10.0 nM. Initiate the binding by adding 80.0 μl of platelet suspension (approx. 100 μg protein). Mix all reagents by pipetting the mixture up and down a few times. Non specific binding is measured in the presence of 1.0 μM of unlabeled ligand (Manning or […] Vasopressin). Let the mixture stand undisturbed at room temperature for ninety (90) min. Upon this time, rapidly filter off the incubate under vacuum suction over GF/B filters, using a Brandel Harvester. Determine the radioactivity caught on the filter disks by the addition of liquid scintillant and counting in a liquid scintillator.

oxytocin receptors = biological target: T3, oxytocin receptors (Rattus norvegicus, UniProt P70536); assay: Oxytocin Receptor Binding; conditions: for inhibition at 10 µM: [3H]oxytocin; for IC50: 1.0 nM [3H]oxytocin
T3 construct: The uteri are dissected out, cleaned of fat and connective tissues; from tissue; host or cells: uterus of DES-treated female Sprague-Dawley rats
T3 sequence (P70536 1-388): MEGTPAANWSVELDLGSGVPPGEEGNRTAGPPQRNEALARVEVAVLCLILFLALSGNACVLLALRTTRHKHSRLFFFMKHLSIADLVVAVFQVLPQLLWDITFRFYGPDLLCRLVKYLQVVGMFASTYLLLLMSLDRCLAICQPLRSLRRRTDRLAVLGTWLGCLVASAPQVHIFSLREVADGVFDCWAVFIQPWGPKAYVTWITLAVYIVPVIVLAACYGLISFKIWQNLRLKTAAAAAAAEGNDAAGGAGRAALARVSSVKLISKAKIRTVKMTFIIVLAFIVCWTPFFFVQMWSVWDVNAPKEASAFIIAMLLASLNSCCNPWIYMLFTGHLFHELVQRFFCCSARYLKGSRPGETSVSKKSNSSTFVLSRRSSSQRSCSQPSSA
Procedure, shortened: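 IC50 is the concentration displacing 50% of 1.0 nM [3H]OT, incubated 60 min at 22 °C in pH 7.4 Tris/MgCl2 buffer plus protease inhibitors, then filtered. Receptor source: uterine membranes from rats given 0.3 mg/kg DES i.m. 18 h earlier. 1.0 uM cold OT defined non-specific binding.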

Rat Hepatic V1 Receptors = biological target: T4, Rat Hepatic V1 Receptors (Rattus norvegicus, UniProt P30560); assay: Binding Assay to Rat Hepatic V1 Receptors
T4 construct: Rat liver plasma membranes expressing the vasopressin V1 receptor subtypes; from tissue; host or cells: rat liver plasma membranes
T4 sequence (P30560 whole entry): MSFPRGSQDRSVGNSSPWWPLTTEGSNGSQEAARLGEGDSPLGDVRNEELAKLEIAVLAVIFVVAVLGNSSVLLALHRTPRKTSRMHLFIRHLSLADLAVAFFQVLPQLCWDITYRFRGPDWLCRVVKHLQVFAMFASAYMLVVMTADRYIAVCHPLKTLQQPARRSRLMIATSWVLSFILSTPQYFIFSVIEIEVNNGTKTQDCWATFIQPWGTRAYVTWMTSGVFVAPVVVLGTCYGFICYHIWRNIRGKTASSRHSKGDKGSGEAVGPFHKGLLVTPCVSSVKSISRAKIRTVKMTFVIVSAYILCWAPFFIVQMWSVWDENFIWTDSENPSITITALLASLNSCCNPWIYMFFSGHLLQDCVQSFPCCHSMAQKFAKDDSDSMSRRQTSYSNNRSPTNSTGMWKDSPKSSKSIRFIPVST

[3] = biological target: T5, Rat Kidney Medullary V2 Receptors (Rattus norvegicus, UniProt Q00788); assay: Binding Assay to Rat Kidney Medullary V2 Receptors; conditions: for IC50: rat kidney medulla membranes, read-out: V2 IC50
T5 construct: Medullary tissues from rat kidneys are dissected out; from tissue; host or cells: rat kidney medulla membranes
T5 sequence (Q00788 whole entry): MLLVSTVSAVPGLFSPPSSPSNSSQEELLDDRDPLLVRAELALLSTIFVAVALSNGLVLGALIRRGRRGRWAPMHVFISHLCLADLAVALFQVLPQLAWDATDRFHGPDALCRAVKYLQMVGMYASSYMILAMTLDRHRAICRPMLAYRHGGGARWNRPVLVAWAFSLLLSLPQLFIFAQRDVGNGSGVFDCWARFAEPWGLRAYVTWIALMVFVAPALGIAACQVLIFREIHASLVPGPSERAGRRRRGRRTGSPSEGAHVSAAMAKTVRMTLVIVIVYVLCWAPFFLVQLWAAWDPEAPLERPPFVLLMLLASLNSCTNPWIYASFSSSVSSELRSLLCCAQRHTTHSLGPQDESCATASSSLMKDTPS
Procedure, shortened: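 IC50 derived from competition curves; bound tritium counted by liquid scintillation after filtration. Rat medullary kidney membranes (Tris-HCl pH 7.4, BSA, PMSF) were incubated 120 min to equilibrium with radioligand and test compound (added in 50% DMSO). Nonspecific binding: 1.0 μM unlabeled ligand.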

Vasopressin V2 = Vasopressin V2 Antagonist Activity in Conscious Hydrated Rats; format: in vivo, rat; conditions: 10 mg/kg orally, AVP 0.4 μg/kg i.p.
Procedure, shortened: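 Four-hour urine output, osmolality and electrolytes (Na+, K+, Cl−) recorded in water-loaded rats (30 mL/kg deionized water orally) given AVP i.p. at 0.4 μg/kg. Test compounds were given orally at 0.1–100 mg/kg 1 h before AVP; 2–4 rats per compound.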

[4] = LV-2 cell membranes, human V2, read-out: V2 IC50 (**)
[5] = rat liver membranes, read-out: V1 IC50

- IC50 [1, 4]: 5 nM
- IC50 [2]: 21 nM
Structure (SMILES): O=C(Nc1ccc(C(=O)N2Cc3cccn3Cc3ccccc32)cc1)c1ccc(F)cc1C(F)(F)F [Example 693, N-[4-(5H-pyrrolo[2,1-c][1,4]benzodiazepin-10(11H)-ylcarbonyl)phenyl]-2-(trifluoromethyl)-4-fluorobenzamide]

- inhibition at 1 µM ([1]; 1 μM, human V2): 92%
- inhibition at 1 µM ([2]; 1.5 h, 1 μM, human platelet): 100%
Structure (SMILES): COc1cc(C(=O)N2Cc3cccn3Cc3ccccc32)ccc1NC(=O)c1cc(C)ccc1C [Example 704, N-[4-(5H-pyrrolo[2,1-c][1,4]benzodiazepin-10(11H)-ylcarbonyl)-2-methoxyphenyl]-2,5-dimethylbenzamide]

- IC50 [1, 4]: 13 nM
- IC50 [2]: 1300 nM
Structure (SMILES): O=C(Nc1ccc(C(=O)N2Cc3cccn3Cc3ccccc32)c(Cl)c1)c1c(F)cccc1C(F)(F)F [Example 698, N-[4-(5H-pyrrolo[2,1-c][1,4]benzodiazepin-10(11H)-ylcarbonyl)-3-chloro-phenyl]-2-fluoro-6-(trifluoromethyl)benzamide]

- IC50 [1, 4]: 6 nM
- IC50 [2]: 200 nM
Structure (SMILES): O=C(Nc1ccc(C(=O)N2Cc3cccn3Cc3ccccc32)c(Cl)c1)c1ccc(F)cc1C(F)(F)F [Example 707, N-[4-(5H-pyrrolo[2,1-c][1,4]benzodiazepin-10(11H)-ylcarbonyl)-3-chlorophenyl]-2-(trifluoromethyl)-4-fluorobenzamide]

- IC50 [1, 4]: 540 nM
- IC50 [2]: 85 nM
Structure (SMILES): O=C(Nc1ccc(C(=O)N2Cc3cccn3Cc3ccccc32)cc1)c1ccccc1O [Example 689, N-[4-(5H-pyrrolo[2,1-c][1,4]benzodiazepin-10(11H-)-ylcarbonyl)phenyl]-2-hydroxybenzamide]

- IC50 [1, 4]: 1.8 nM
- IC50 [2]: 15 nM
Structure (SMILES): COc1cc(NC(=O)c2cc(F)ccc2C)ccc1C(=O)N1Cc2cccn2Cc2ccccc21 [Example 695]

- IC50 [1, 4]: 2.9 nM
- IC50 [2]: 72 nM
Structure (SMILES): Cc1ccccc1C(=O)Nc1ccc(C(=O)N2Cc3cccn3Cc3ccccc32)c(C)c1 [Example 691, N-[4-(5H-pyrrolo[2,1-c][1,4]benzodiazepin-10(11H)-ylcarbonyl)-3-methylphenyl]-2-methylbenzamide]

- IC50 [1, 4]: 31 nM
- IC50 [2]: 2 nM
Structure (SMILES): COc1cc(C(=O)N2Cc3cccn3Cc3ccccc32)ccc1NC(=O)CC(C)C [Example 716]

- inhibition at 1 µM ([3]; 1 μM, rat): 100%
- IC50 [2]: 340 nM
Structure (SMILES): Cc1ccc(C)c(C(=O)Nc2ccc(C(=O)N3Cc4cccn4Cc4ccccc43)c(Cl)c2)c1 [Example 701, N-[4-(5H-pyrrolo[2,1-c][1.4]benzodiazepin-10(11H)-ylcarbonyl)-3-chloro-phenyl]-2,5-dimethylbenzamide]

The remaining lines, values behind:

Structure (SMILES): O=Cc1cccn1CC(=O)Nc1ccc(C(=O)N2Cc3cccn3Cc3ccccc32)cc1 [Example 685, N-[4-(5H-Pyrrolo[2,1-c][1,4]benzodiazepin-10(11H)-ylcarbonyl)phenyl]-2-(2-formyl-1-pyrrolo)acetamide]
- IC50 [1, 4]: 61 nM
- IC50 [2]: 61 nM

Structure (SMILES): Cc1ccc(F)cc1C(=O)Nc1ccc(C(=O)N2CCc3cccn3-c3ccccc32)c(Cl)c1 [Example 612, N-[4-[(6,7-Dihydro-5H-pyrrolo[1,2-a]-[1,5]benzodiazepin-5-yl)carbonyl]-3-chlorophenyl]-5-fluoro-2-methyl-benzamide]
- IC50 [1, 4]: 10 nM
- IC50 [2]: 1700 nM

Structure (SMILES): CC(=O)Oc1ccccc1C(=O)Nc1ccc(C(=O)N2Cc3cccn3Cc3ccccc32)cc1 [Example 688, N-[4-(5H-pyrrolo[2,1-c][1,4]benzodiazepin-10(11H)-ylcarbonyl)phenyl]-2-(acetoxy)benzamide]
- IC50 [1, 4]: 34 nM
- IC50 [2]: 69 nM

Structure (SMILES): CN(C)CCSC(C(=O)Nc1ccc(C(=O)N2Cc3cccn3Cc3ccccc32)cc1)c1ccccc1 (stereo not drawn) [Example 584, α-[[2-(Dimethylamino)ethyl]thio]-N-[4-(5H-pyrrolo[2,1-c][1,4]benzodiazepin-10(11H)-ylcarbonyl)phenyl]benzeneacetamide]
- inhibition at 10 µM (oxytocin receptors): 26%
- IC50 (Rat Hepatic V1 Receptors; [5]): 1200 nM
- IC50 [3]: 480 nM
- Osmolality (Vasopressin V2): 1718 mOsm/kg
- Urine Volume (Vasopressin V2): 2.5 ml/4 hrs

Structure (SMILES): CN(C)C(C(=O)Nc1ccc(C(=O)N2Cc3cccn3Cc3ccccc32)cc1)c1ccccc1 (stereo not drawn) [Example 586, α-(Dimethylamino)-N-[4-(5H-pyrrolo[2,1-c][1,4]benzodiazepin-10(11H)-ylcarbonyl)phenyl]benzeneacetamide]
- IC50 (oxytocin receptors): 4700 nM
- inhibition at 10 µM (oxytocin receptors): 61%
- IC50 (Rat Hepatic V1 Receptors; [5]): 450 nM
- IC50 [3]: 230 nM
- Osmolality (Vasopressin V2): 1196 mOsm/kg
- Urine Volume (Vasopressin V2): 4.3 ml/4 hrs

Structure (SMILES): Cc1ccc(F)cc1C(=O)Nc1ccc(C(=O)N2Cc3cccn3Cc3ccccc32)c(C)c1 [Example 694, N-[4-(5H-pyrrolo[2,1-c][1,4]benzodiazepin-10(11H)-ylcarbonyl)-3-methylphenyl]-5-fluoro-2-methylbenzamide]
- IC50 [1]: 1.7 nM
- IC50 (Rat Hepatic V1 Receptors): 120 nM

Structure (SMILES): O=C(Nc1ccc(C(=O)N2Cc3ccc(C(=O)C(Cl)(Cl)Cl)n3Cc3ccccc32)cc1)c1ccccc1C(F)(F)F [Example 597]
- inhibition at 10 µM (oxytocin receptors): 42%
- inhibition at 10 µM (Rat Hepatic V1 Receptors; 2 h, 10 μM, rat): 100%
- inhibition at 10 µM ([3]; 10 μM, rat): 97%
- Osmolality (Vasopressin V2): 1250 mOsm/kg
- Urine Volume (Vasopressin V2): 5.3 ml/4 hrs

Structure (SMILES): Cc1ccccc1C(=O)Nc1ccc(C(=O)N2CCc3cccn3-c3ccccc32)cc1 [Example 297]
- IC50 (oxytocin receptors): 4000 nM
- inhibition at 10 µM (oxytocin receptors): 76%
- IC50 (Rat Hepatic V1 Receptors; [5]): 270 nM
- IC50 [3]: 33 nM
- Osmolality (Vasopressin V2): 796 mOsm/kg
- Urine Volume (Vasopressin V2): 7 ml/4 hrs
